In paper PMC7363885, “Fluorescent artificial receptor-based membrane assay (FARMA) for spatiotemporally resolved monitoring of biomembrane permeability” (Communications Biology, 2020):
Entries after “also recorded” stand apart in the source; their conditions may differ. Like-named read-outs stand apart in the source and are kept apart here.

Assays:
[1] = 298 K; cited from earlier work
Caco-2 = details: cited from earlier work
[2] = Aliquot analysis/flat lipid bilayer (macroscopic bilayer of brain phospholipids); cited from earlier work
[3] = FARMA: permeation of analytes into FAR-loaded liposomes (fluorescence, cuvette or stopped-flow); details: for membrane permeability (in words): FARMA with FAR-loaded liposomes or GUVs
From the text: Elementary physical parameters, such as permeability coefficients, can be extracted from the full kinetic FARMA data. This kinetic profile → parameter mapping requires some assumptions to be made in regard to the permeation mechanism. We applied a reported permeation model for liposomes[31] to arrive at permeation rate constants (kp) and apparent permeability coefficients (Papp). The derivation of the mathematical relation (1), linking the fundamental permeability rate constant and permeability coefficient to experimental measurable kobs rate constants, the known total analyte and total FAR concentration, and the experimentally determined liposome radius (r), is shown in the Supplementary Information.1 Papp=kp⋅r/3=kobs/canalyte⋅cFAR⋅r/3 […]
The volume-to-surface correction factor r/3 accounts for the fact that the observed rates depend on the size, i.e., radius r, of the liposomal assembly. […] The initial-rate method can also be applied, see the Supplementary Information. Moreover, kobs/canalyte can be estimated by single-point measurements at selected canalyte concentration.
A solution of 2.5 mg/mL of POPC and 0.33 mg/mL of POPS in chloroform was purged with nitrogen and dried overnight under […] vacuum. […] The resulting FAR-loaded liposomes were separated from non-encapsulated species by size-exclusion chromatography (NAP-25 column), while maintaining the same buffer. The absence of non-encapsulated FAR was confirmed by adding a non-membrane-permeable species such as tryptophan to a fluorescence cuvette containing 25 µL of liposomes diluted in 1 mL HEPES (10 mM) buffer. Complete removal of non-encapsulated FAR is indicated by the absence of a significant fluorescence change upon Trp addition.
In a typical experiment, 20 µL of liposome solution loaded with FAR was diluted in 1 mL HEPES buffer (10 mM, pH 7.0) in a 1 mL quartz cuvette. An emission spectrum was recorded after 10 min of “equilibration time” on a Varian Eclipse spectrofluorometer thermostated at 22 °C with a water bath using λexc = 400 nm for FAR-1, λexc = 310 nm for FAR-2, and λexc = 330 nm for FAR-3. In the time-resolved experiments, the emission intensity at λobs = 450 nm for FAR-1, λobs = 370 nm for FAR-2, and λobs = 370 and 500 nm for FAR-3 (the latter is the emerging excimer band for certain FAR-3•analyte complexes) was recorded with an averaging time of 0.5 s. […] For single-point experiments, a full spectrum was recorded after a fixed time or several time intervals after analyte addition. […] Only FAR-analyte combinations were used for FARMA, for which no significant autofluorescence and competitive light absorption of the analyte occurred.
For each experiment, measurements from 6 injections were accumulated and the average of these traces was used for data analysis.
Calculation of the unimolecular permeation rate constants ( kp) and of the apparent permeability coefficients (Papp).
The passive diffusion (permeation) of small non-charged compounds follows a modified Fick’s law and can be expressed by a first order kinetics.1 Similar to first order chemical reactions, the kinetics curve can therefore be fitted monoexponentially to obtained the observed permeation rates (kobs). In our assay set-up, such an exponential fit is an approximation, since it neglects that a certain fraction of transported analyte is bound to the FAR and cannot exit the liposome. Nevertheless, the fit of the kinetic curves of the […]
approximation is justified.

FAR-1 = experiment: Fluorescence titration, FAR•analyte complex formation in homogeneous solution; assay type: binding; details: FAR-1; 10 mM HEPES buffer (pH 7); 1:1 binding model; error estimate ≤ 20%
Procedure: Fluorescence titrations were carried out in aqueous HEPES buffer (10 mM, pH 7, 22 °C) unless stated otherwise. To a solution of the FAR (typically at 10–30 μM) was stepwise added a solution of the analyte (typically up to 2 mM) and the fluorescence spectra were recorded. The normalized emissions at 450 nm (FAR-1) or at 370 nm (FAR-2) were fitted with an equation for a 1 : 1 binding by a least-square fit. The resulting affinity constants are reported in Supplementary Table 1. Representative titration plots are shown in Supplementary Fig. 1. Note that the high CB8-dye binding affinities correspond to a near quantitative degree of host-dye complexation, i.e., quantitative formation of the FAR, such that the subsequent binding of the analyte can be treated independently.

[4] = PAMPA; cited from earlier work
[5] = FARMA in DOPC:DOPS compared to POPC:POPS liposomes; assay type: in vitro ADME; details: peer review file
From the text: good choice since they give different degrees of packing of lipids. If the authors further utilize the liposomes for testing membrane permeability of some of the compounds appeared in the manuscript using FARMAs composed of such different types of lipids, the results would be informative for understanding relationships between permeability of compounds and lipid structures.
The FARMA method opens indeed a door for the systematic investigation of permeability in dependence on (i) different lipids, (ii) temperature, (iii) phase transitions, and (iv) additives. These studies are under way in our laboratories but we have now emphasized some key findings in regard to the transferability of the method:
- Investigation of additives: We show in the manuscript that different lipid composition are in princi-ple possible by adding cholesterol to the POPC and POPS membrane (Fig S7), causing a noticeable alteration of the permeation kinetics of tryptamine as a model analyte.
- Different lipid compositions: We have added a statement on page 10 (bottom) pointing to the possi-bility of preparing reporter-pair loaded liposomes with different lipid POPC:POPS compositions, ranging from 8:1 to 15:1 (our GUV preparations in the manuscript) to pure POPC (ref. 20 in the main […]

[6] = End-point analysis/EPC liposomes; cited from earlier work
[7] = Dye displacement membrane assay (liposome-encapsulated host•dye ensembles); details: dye displacement, CB7•BE-, CB8•MV•5OH-Trp- or CB8•MV•2,6-ANS-loaded liposomes
From the text: Supplementary Figure 13 | Graphical representation of membrane assays using dye displacement for signaling. Diffusion of analytes through a lipid membrane is detected by displacement of the dye from (a) a host•dye or (b) a host•dye•quencher complex, leading to reduction or enhancement in emission intensity.
Supplementary Figure 14 | Membrane permeation monitoring of analytes by dye displacement. (a) Time-resolved changes in fluorescence intensity of CB7•BE-loaded liposomes (λexc = 347 nm, λobs = 500 nm) upon addition of the membrane-permeable analyte tyramine and membrane destabilizing peptide melittin.
(b) Evolution of fluorescence intensity after addition of dimethylbenzylamine (DMBA) to CB7•PAL-loaded liposomes (λexc = 347 nm, λobs = 500 nm). (c) Fluorescence response after addition of the […]
tryptophan to liposomes loaded with CB8•MV•2,6-ANS (λexc = 380 nm, λobs = 463 nm). […]
Combing equations S1 and S2, one arrives at Papp = kp∙(r/3) = kobs/canalyte∙cFAR∙(r/3) (equation 1 in main text)
Dye displacement membrane assay
Dye displacement membrane assays rely on selective encapsulation of reporter pairs inside liposomes and the reversible interaction between the receptor and the translocated analyte. To conduct the assay, liposomes containing the chemosensing ensemble composed of a macrocyclic host and a dye are prepared and purified, such that a subsequently added analyte affects the dye fluorescence only if it can enter the vesicle and displaces the dye from the macrocycle. Until now, only the dye displacement has been used as the signaling mechanism for tandem membrane assays,3, 4 whereby the competitive displacement of the dye from such host•dye complexes upon analyte addition restores the fluorescence features of the dye in solution, Supplementary Figures 13 - 14.
Specifically, this signaling mechanism has been mostly employed with macrocyclic host s with cavity space that is capable o f forming 1:1 complex es, e.g., cucurbit[7]uril (CB7) and the dyes berberine (BER) or palmatine (PAL), see Supplementary Figure 13a, or with p-sulfonato calix[4]arene (CX4) and lucigenin.3,4 Expanding the repertoire of chemosensors for tandem membrane assay s, we exploit herein also the ability of a larger macrocyclic host such as cucurbit[8]uril (CB8) to form 1:1:1 ternary complexes,5-7 and utilize here the quencher methyl viologen (MV) in combination with the fluorescent dyes 5-hydroxy tryptophan (5HO-Trp), 2-anilinonaphthalene -6-sulfonic acid (2,6-ANS) or dapoxyl sulfonic acid, sodium salt (DapoxS), Supplementary Figure 13b. Upon addition of an analyte, the fluorescent dye, the quencher or both the fluorescent dye and quencher are displaced from the CB8 cavity, which in each case is reflected by an increase in the emission intensity of the dye (switch -on displacement assay), Supplementary Figures 14- […]
The dye displacement signal strategy has two important disadvantages compared to the preferred fluorescent artificial receptor (FAR) assays:
(i) The dye displacement strategy is limited to strongly binding analytes, i.e., K(analyte) ≥ K(dye), otherwise a large excess concentration of analyte is needed to generate significant

[8] = Fluorescence quenching; cited from earlier work
[9] = no passive permeation but active transport

SMILES: COc1ccc2cc3[n+](cc2c1OC)CCc1cc2c(cc1-3)OCO2 [BER, berberine]
- dissociation rate from CB7 [1]: 0.8 s⁻¹

SMILES: c1ccc2[nH]ccc2c1 [Indole, indole]
- Papp Literature (Caco-2): 57 10^−6 cm s^−1
- Papp Literature [2]: 250 10^−6 cm s^−1
- membrane permeability (in words) [3]: instantaneous; also recorded: permeating
- kobs ([3]; monoexponential fit, analyte 40 µM (bulk), FAR-2 ca. 500 µM in the liposome interior, 20% error): 1.8 s–1
- kp ([3]; not told, pH 7): 3200
- kobs ([3]; source data of Fig. 5): 1.8
- log(kobs) ([3]; source data of Fig. 5): 0.2553

SMILES: CC12CC3CC(C)(C1)CC(N)(C3)C2 [Memantine, 3,5-dimethyladamantan-1-amine, reference compound]
- Papp Literature (Caco-2): 43 10^−6 cm s^−1
- Papp ([3]; not told, pH 7): 24 ×10⁻⁶ cm/s

SMILES: CNC(=C[N+](=O)[O-])NCCSCc1ccc(CN(C)C)o1 [Ranitidine, ranitidine, reference compound]
- Papp Literature (Caco-2; [9]): 0.49 10^−6 cm s^−1
- Ka (FAR-1): 2 10^3 M−1
- Papp Literature [4]: 0.88 10^−6 cm s^−1
- Papp at 100 µM ([3]; not told, pH 7): 0.013 ×10⁻⁶ cm/s

SMILES: NCCc1c[nH]c2ccc(O)cc12 [Serotonin, serotonin]
- permeation rate, factor lower for DOPC:DOPS compared to POPC:POPS liposomes [5]: 2-4
- Ka (FAR-1): 5 10^3 M−1
- Papp Literature [2]: 1.1 10^−6 cm s^−1
- membrane permeability (in words) [3]: pass the membrane within several minutes to hours
- Papp at 16 µM ([3]; not told, pH 7): 0.004 ×10⁻⁶ cm/s

SMILES: N[C@@H](Cc1c[nH]c2ccccc12)C(=O)O [Trp, tryptophan]
- Papp Literature (Caco-2; [9]): 1.0 10^−6 cm s^−1
- Ka (FAR-1): 150 10^3 M−1
- Papp Literature [6]: 0.00041 ×10⁻⁶ cm/s
- membrane permeability (in words) [7]: impermeable
- membrane permeability (in words) [3]: no permeation
- membrane permeability (in words) ([3]; listed as tryptophan): non-permeating

SMILES: NCCc1c[nH]c2ccccc12 [Tryptamine, tryptamine]
- Ka (FAR-1): 50 10^3 M−1
- Papp Literature [8]: 0.33 10^−6 cm s^−1
- Papp Literature [4]: 5.4 10^−6 cm s^−1
- Papp Literature [2]: 6.7 10^−6 cm s^−1
- membrane permeability (in words) [7]: slowly membrane permeable
- membrane permeability (in words) [3]: slow permeation; also recorded: pass the membrane within several minutes to hours
